Structures are written as SMILES.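 Growth conditions: 96-well plates. Treatment: test compound, 48 hours, 5 concentrations. Analysis: linear interpolation between bracketing concentrations; unreached endpoints set to highest concentration. The concentration for 50% growth inhibition is given as GI50.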 Calls of active or inactive are those of the source. Cut-off read from the data, not from the text of the source: active = GI50 up to about 1.1 µM and inactive = higher.

Among the test systems are SK-MEL-2; CCRF-CEM; SNB-19; MOLT-4; ACHN; SK-MEL-5; NCI-H226; NCI/ADR-RES; IGROV-1; OVCAR-3; HCT-116; M14; UO-31; HT-29; LOX IMVI; A498; OVCAR-4; RXF 393; MDA-N; HCC 2998.
What all share (experiment): NCI-60 cell line screen, 48 h

Turning to `O=C1C(c2c(O)[nH]c3ccccc23)=Nc2ccc(Br)cc21`, the GI50 is 29.8 µM (inactive) in the experiment on SK-MEL-2; 21.2 µM (inactive) with CCRF-CEM; 22 µM (inactive) in the experiment on SNB-19; 18.9 µM (inactive) in the experiment on MOLT-4; 14.5 µM (inactive) in the experiment with ACHN; > 100 µM (inactive) in the experiment with SK-MEL-5. The GI50 was 18.5 µM (inactive) in the experiment with NCI-H226; 37.4 µM (inactive) in the experiment with NCI/ADR-RES; 3.37 µM (inactive) with IGROV-1; 99.5 µM (inactive) in the experiment with OVCAR-3; 24.3 µM (inactive) in the experiment with HCT-116; 93.5 µM (inactive) in the experiment on M14. Moreover, the GI50 is 24.6 µM (inactive) in the experiment with UO-31; 23.9 µM (inactive) in the experiment with HT-29; 51.8 µM (inactive) with LOX IMVI; 4.39 µM (inactive) in the experiment with A498; 14.9 µM (inactive) in the experiment on OVCAR-4; 12.9 µM (inactive) in the experiment with RXF 393. Also, the GI50 in the experiment with MDA-N was 99.1 µM (inactive); in the experiment with HCC 2998, 25.6 µM (inactive).

Consider `O=C1Nc2ccc([N+](=O)[O-])cc2/C1=N/NC(=S)Nc1ccc([N+](=O)[O-])cc1`, for which the GI50 with SK-MEL-2 was 18.5 µM (inactive); in the experiment on CCRF-CEM, 18.7 µM (inactive); in the experiment on SNB-19 it was 26.2 µM (inactive); in the experiment with MOLT-4, 35.9 µM (inactive); in the experiment with ACHN, 24.8 µM (inactive); with SK-MEL-5 it was 15.8 µM (inactive). The GI50 is 27.9 µM (inactive) in the experiment with NCI-H226; 20.5 µM (inactive) in the experiment on NCI/ADR-RES; 17.7 µM (inactive) in the experiment on IGROV-1; 22.9 µM (inactive) with OVCAR-3; 20.4 µM (inactive) with HCT-116; 19.6 µM (inactive) with M14. The GI50 in the experiment on UO-31 was 18 µM (inactive); with HT-29 it was 26.7 µM (inactive); with LOX IMVI, 22.2 µM (inactive); with A498, 18.2 µM (inactive); in the experiment with OVCAR-4, 19.3 µM (inactive); in the experiment on RXF 393, 17.5 µM (inactive). Further, the GI50 is 17.9 µM (inactive) in the experiment on MDA-N and 20.9 µM (inactive) with HCC 2998.

Consider `CC(C)OP(=O)(OC(C)C)C(Nc1cccc(C(F)(F)F)c1)c1ccccc1` (stereo not given), for which the GI50 is 50.7 µM (inactive) with SK-MEL-2; 31 µM (inactive) with CCRF-CEM; 71.6 µM (inactive) with SNB-19; 13.7 µM (inactive) in the experiment with MOLT-4; 35.6 µM (inactive) in the experiment on ACHN; 22.4 µM (inactive) in the experiment on SK-MEL-5. Also, the GI50 was 60 µM (inactive) in the experiment with NCI-H226; 32.7 µM (inactive) in the experiment on NCI/ADR-RES; 79.4 µM (inactive) in the experiment on IGROV-1; 35.6 µM (inactive) in the experiment on OVCAR-3; 17.1 µM (inactive) with HCT-116; 38.5 µM (inactive) in the experiment with M14. For the same molecule, the GI50 in the experiment on UO-31 is 17.9 µM (inactive); in the experiment on HT-29 it was 21.6 µM (inactive); in the experiment on LOX IMVI, 39.4 µM (inactive); in the experiment on A498, > 100 µM (inactive); in the experiment with OVCAR-4, 54.8 µM (inactive); in the experiment with RXF 393, 49.5 µM (inactive). The GI50 in the experiment on MDA-N was 41 µM (inactive); in the experiment on HCC 2998 it was 55.6 µM (inactive).

As to `CN1c2ccccc2C2c3c(O)ccc(O)c3C=C([N+](=O)[O-])C21` (stereo not given), the GI50 in the experiment on SK-MEL-2 was 1.98 µM (inactive); in the experiment with CCRF-CEM it was 1.04 µM (active); in the experiment on SNB-19, 0.619 µM (active); with MOLT-4, 0.424 µM (active); with ACHN, 0.679 µM (active); with SK-MEL-5, 0.548 µM (active). For the same molecule, the GI50 in the experiment on NCI-H226 is 16.2 µM (inactive); with NCI/ADR-RES it was 1.04 µM (active); in the experiment with IGROV-1 it was 0.492 µM (active); in the experiment on OVCAR-3, 0.0329 µM (active); in the experiment on HCT-116, 0.205 µM (active); in the experiment with M14, 0.513 µM (active). In addition, the GI50 with UO-31 was 0.521 µM (active); in the experiment on HT-29 it was 0.136 µM (active); in the experiment with LOX IMVI, 0.407 µM (active); in the experiment on A498, 1.79 µM (inactive); in the experiment with OVCAR-4 it was 1.21 µM (inactive); in the experiment on RXF 393 it was 3.91 µM (inactive). Moreover, the figures for the GI50 in the experiment on MDA-N and in the experiment with HCC 2998 were 0.69 µM (active) and 0.716 µM (active), respectively.

The values are drawn from ChEMBL document CHEMBL1201862, “PubChem BioAssay data set” (2004).
